The source of these data is the METLIN SMRT retention time set (Domingo-Almenara et al. 2019).

The structures appear in SMILES notation.

The nature of this series: gradient 5% acetonitrile 3 min, to 50% in 2 min, to 85% in 15 min, held 3 min, 100 µL/min. Conditions: column: Zorbax Extend-C18 2.1 x 50 mm; eluents: water / acetonitrile, 0.1% formic acid. The method in brief: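 Retention times of pure standards were taken from adduct peaks that were selected by computer and manually inspected. Over 3 months, mixtures of ~100 molecules were run by HPLC–quadrupole time-of-flight mass spectrometry in positive and negative ionization mode. The Zorbax Extend-C18 column (2.1 × 50 mm, 1.8 μm) ran at 100 μL/min in water and acetonitrile, each containing 0.1% formic acid, with 40 μL dead volume and 900 μL dwell volume.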
Regarding `CCc1nc2cc(-c3noc(-c4ccc(CS(=O)(=O)c5ccccc5)cc4)n3)ccc2o1`, the RP-LC retention time turned out to be 1140 s. Under `CS(=O)(=O)N1CCCC(C(=O)Nc2ccc(Cl)cc2C(=O)c2ccccc2)C1` (centres undefined) stands 869 s; under `CCN(CC)c1ccc(NC(=O)CSc2ccc(N3CCCC(C(=O)NC4CC4)C3)nn2)c(C)c1` (centres undefined), 529 s; under `CCOCCCNC(=O)c1nc(Nc2ccc(F)cc2)c2ccccc2n1`, 746 s. Under `CCCNC(=O)C1CCN(c2ccc(SCC(=O)Nc3ccccc3C(=O)OCC)nn2)CC1` stands 715 s; under `CCCc1nc2cccnc2n1C1CCN(C(=O)NCc2ccccc2)C1` (centres undefined), 603 s; under `O=C(Cn1ncc2c(c1=O)N(CC1CC1)C(=O)CS2)Nc1ccccc1C(F)(F)F`, 831 s. Under `O=C(NCCCN1CCCC1)c1ccc(CS(=O)Cc2ccccc2Cl)o1` (centres undefined) stands 548 s; under `O=C(Cc1cn2cc(F)ccc2n1)Nc1ccc(Cl)cc1Cl`, 666 s. `CCN1CCN(C(=O)Cn2nc(C)c3sc(-c4ccccc4)nc3c2=O)CC1` came in with an RP-LC retention time of 604 s. Under `O=C(CCSCCc1ccccn1)Nc1c(F)cc(F)cc1Br` stands 627 s; under `CC(=O)c1ccc(NC(=O)CN2C(=O)NC3(CCC(C)CC3)C2=O)cc1` (centres undefined), 762 s. Under `Cc1[nH]c(=O)[nH]c(=O)c1S(=O)(=O)NC1CC2CCC1C2` (centres undefined) stands 658 s; under `O=C(c1ccc2c(c1)OCO2)N1CCC(Nc2ncnc3c2CCC3)C1` (centres undefined), 564 s; under `CCN1CCC2(CC1)N=C(c1ccc3c(c1)OCO3)CC(c1cc(Br)ccc1O)N2` (centres undefined), 634 s.

With `Cc1nnc(N2CCC(C(=O)NCC3CCCO3)CC2)c2nn(-c3ccccc3)c(C)c12` (centres undefined), the RP-LC retention time came to 632 s. Under `O=C(C1=NN(Cc2ccccc2)c2cc(Cl)ccc2S1(=O)=O)N1CCOCC1` stands 864 s. Then `COc1ccc(CCNC(=O)C2CCCN(c3ncnc4c3nc3n4CCCCC3)C2)c(OC)c1` (centres undefined), with 778 s.

Turning to `CCNC(=O)N1CC=C(C(=O)Nc2ccc(F)cc2)CC1`, the RP-LC retention time is 672 s.

As for `CCc1cc(=O)n(CC(=O)N2CCN(c3ccc(F)cc3)CC2)c(N2CCOCC2)n1`, the RP-LC retention time is 720 s. In the case of `Cc1nc(-c2ccccc2)sc1C(=O)Nc1nc(-c2ccccc2)c(C)s1`, the RP-LC retention time was found to be 1210 s. As for `CC1CCN(S(=O)(=O)c2cc(-c3nnc(C4CCCC4)o3)co2)CC1`, the RP-LC retention time stood at 1080 s. `Cn1cnc(S(=O)(=O)N2[C@H]3CC[C@@H]2c2cnc(-c4ccc(F)cc4)nc2C3)c1` gave an RP-LC retention time of 764 s. Under `COc1ccc(CSc2nccc3c2ccn3CC(=O)N2CCN(c3ccc(F)cc3)CC2)cc1` stands 777 s; under `O=C(O)c1cc2cc(F)ccc2[nH]1`, 791 s.

`O=C(N[C@@H]1CN(c2ncccn2)C[C@H]1CO)c1ccc(Cl)cc1` gave an RP-LC retention time of 628 s. Then `Cc1ccc(NC(=O)N2CCCC(C)(C(=O)NCc3ccccc3C)C2)cc1C` (centres undefined), with 978 s; and `N#Cc1ccc(C(=O)N2CCC(CCOCC3CC3)CC2)cc1`, with 862 s. Under `O=C(CC1=NS(=O)(=O)c2ccccc2N1)Nc1ccc(F)cc1F` stands 679 s. Then `Cc1ccc(NC(=O)Cn2c(=O)n(-c3ccc(F)cc3)c(=O)c3c2cc(C)n3C)cc1F`, with 882 s; and `COc1cccc(CC(=O)N2C[C@@H]3C[C@H]2C[C@@H]3NS(=O)(=O)c2ccccc2)c1`, with 764 s. On to `CCOc1ccccc1NC(=O)Cn1nnc(C(=O)Nc2cc(Cl)ccc2OC)c1N`, for which the RP-LC retention time turned out to be 970 s.

As to `Cc1ccc(C)c(CNS(=O)(=O)c2c(C)sc(C)c2-c2n[nH]c(C)c2C)c1`, the RP-LC retention time was determined as 1150 s. Then `CC(=O)OCc1cc(=O)n(C)c2c3c4c(cc12)c(C)cc(=O)n4CO3`, with 669 s; and `COc1ccccc1N1CCN(CCNC(=O)c2c(F)cccc2F)CC1`, with 567 s; and `COCCOC1CCOC2(CCN(C(=O)c3cccs3)CC2)C1` (centres undefined), with 691 s. `O=C(NC1CCN(Cc2ccccc2)CC1)C1CCCN(c2ncc(-c3cccc(F)c3)cn2)C1` (centres undefined) came in with an RP-LC retention time of 753 s. Then `COc1ccc(S(=O)(=O)N2CCCC(C(N)=O)C2)cc1Cl` (centres undefined), with 701 s.

`CN1CCN(S(=O)(=O)c2ccc(Cl)c3ccccc23)CC1`: the RP-LC retention time worked out at 580 s. The compound `NC(=O)c1ccc2c(c1)S(=O)(=O)c1ccccc1C2=O` showed an RP-LC retention time of 727 s. Then `COc1ccccc1CNC(=O)Cn1nc2c(N3CCC(C)CC3)nccn2c1=O`, with 745 s; and `Cn1nc(-c2nc(Cc3ccccc3)no2)c2c1CCN(C(=O)NC(C)(C)C)C2`, with 889 s. Compound `CCn1nccc1C(=O)NC1CCN(c2nc3c(s2)c(C)nn3-c2ccc(F)cc2)CC1` showed an RP-LC retention time of 1060 s. Under `CCOC(=O)c1oc2ccccc2c1NC(=O)C1CCCN1S(C)(=O)=O` (centres undefined) stands 796 s; under `Cc1cccn2c(=O)c3cc(C(=O)NCCc4ccc(S(N)(=O)=O)cc4)n(C)c3nc12`, 757 s. Regarding `Clc1ccccc1N1CCN(Cc2nnc(-c3ccccc3)o2)CC1`, the RP-LC retention time stood at 768 s.

`CC1(C(=O)NCc2ccc(F)cc2)CCCN(C(=O)NCc2ccccc2)C1` (centres undefined) yielded an RP-LC retention time of 829 s. Then `COc1ccccc1NC(=O)c1[nH]c2cc(C)sc2c1CN(C)C`, with 678 s; and `Cc1cc(N2CCN(C)CC2)nc2ccc(NC(=O)C3CCC(C(C)(C)C)CC3)cc12` (centres undefined), with 675 s; and `COC(=O)c1ncn2c1C(=O)N(Cc1ccccc1C)C(C)(C(=O)NCc1ccccc1)C2` (centres undefined), with 735 s. Under `CCC1CN(C(=O)N2CCC(C(=O)NCCCN3CCOCC3)CC2)c2cc(C)ccc2O1` (centres undefined) stands 648 s; under `COc1ccc(OC)c(NC(=O)Cn2ccc3c(=O)n(C)c(=O)n(C)c32)c1`, 670 s. Under `COc1cccc(NC(=O)C2CCN(Cc3cnn(-c4ccccc4)c3-n3cccc3)CC2)c1` stands 723 s; under `Cc1nnc(-c2cn(CC(=O)Nc3cccc(Br)c3)c3ccccc23)o1`, 893 s; under `CC(C)CN1CCN(Cc2nc(-c3ccc(N4CCCCC4)nc3)no2)CC1`, 596 s. `CCNc1cc(N2CCCC(CCC(=O)Nc3ccc4c(c3)OCCO4)C2)ncn1` (centres undefined) yielded an RP-LC retention time of 674 s.

For the compound `O=C(NCCc1csc(-c2ccccc2)n1)C1CCN(C(=O)COc2ccccc2)CC1`, the RP-LC retention time was determined as 806 s. In turn, `O=C(NCc1ccc2c(c1)OCO2)c1nnc(-c2ccc(S(=O)(=O)N3CCCCC3)cc2)o1` yielded an RP-LC retention time of 948 s. The compound `CC(C)c1ccc(S(=O)(=O)NCc2ccsc2)cc1` gave an RP-LC retention time of 954 s.
